Assay results: paper PMC7355955, “Validation of Pharmacological Protocols for Targeted Inhibition of Canalicular MRP2 Activity in Hepatocytes Using [^99mTc]mebrofenin Imaging in Rats” (Pharmaceutics, 2020)
pIC50: −log10 of the molar value. Where two headings read alike, the source gives them in different places.

Assays:
human MRP2 = human MRP2 (Homo sapiens, UniProt Q92887); assay: cell-based
Method: Stably transfected MDCK-II-MRP2 cells overexpressing human MRP2 were a kind gift from A. Schinkel ([…], The Netherlands). Cells were cultured in a controlled atmosphere at 37 °C, 5% CO2. The culture medium was composed of DMEM Glutamax (Dulbecco’s Modified Eagle Medium, 4.5 g/L D-glucose, pyruvate) supplemented with 10% fetal bovine serum and 1% antibiotics (penicillin and streptomycin 5000 U/mL). MRP2-mediated transport was assessed using the calcein-AM assay. Cells were seeded in 24-well plates (30,000 cells per well) in 500 μL of culture medium. […] After 30 min at 37 °C, the incubation buffer was removed and cell monolayers were rapidly washed with 300 μL of ice-cold buffer (Dulbecco’s phosphate buffered saline + CaCl2 + MgCl2). Cells were then lysed by 10 min of incubation with 500 μL of NaOH (10 mM). […] For each inhibitor, uptake data were normalized to describe the extent of inhibition from 0 to maximal (100%) inhibition.

rats = conditions: rat, in vivo
[1] = tested on: hepatic OATP and MRP2 activity; conditions: rat; lowest doses: DTZ 10 mg/kg s.c., CsA 0.01 mg/kg i.v.
Method: [^99mTc]mebrofenin scintigraphy was performed using a clinical SPECT-CT camera (Symbia®, Siemens, Knoxville, TN, USA) with a Low Energy High Resolution (LEHR) collimator. In each session, 3 rats were placed in a row on the scanner bed and catheters were inserted in the caudal vein. Experiments were performed for control conditions or after injection of the different transporter inhibitors. RIF (40 mg/kg intravenously, i.v.) was injected immediately before [^99mTc]mebrofenin as previously described [33]. […] Rats were injected with [^99mTc]mebrofenin (39 ± 4 MBq, i.v.) followed by dynamic planar acquisitions. Acquisitions were terminated by a X-ray CT scan.
Images were analyzed with PMOD® software (version 3.9, PMOD Technologies LLC). Regions of interest (ROI) were manually drawn on the liver, intestine, heart (= image-derived blood curve) and urinary bladder. Corresponding TACs were generated by plotting the mean radioactivity amount in each ROI normalized to the injected dose in each animal (cps/MBq) versus time.

[2] = tested on: hepatic OATP and MRP2 activity; design: method as in PMID 23440558; conditions: cited from earlier work
[3] = mice, lowest tested dose 12.5 mg/kg i.v. followed by 3.12 mg/kg intraperitoneal

Sequence of human MRP2 (Q92887 whole entry): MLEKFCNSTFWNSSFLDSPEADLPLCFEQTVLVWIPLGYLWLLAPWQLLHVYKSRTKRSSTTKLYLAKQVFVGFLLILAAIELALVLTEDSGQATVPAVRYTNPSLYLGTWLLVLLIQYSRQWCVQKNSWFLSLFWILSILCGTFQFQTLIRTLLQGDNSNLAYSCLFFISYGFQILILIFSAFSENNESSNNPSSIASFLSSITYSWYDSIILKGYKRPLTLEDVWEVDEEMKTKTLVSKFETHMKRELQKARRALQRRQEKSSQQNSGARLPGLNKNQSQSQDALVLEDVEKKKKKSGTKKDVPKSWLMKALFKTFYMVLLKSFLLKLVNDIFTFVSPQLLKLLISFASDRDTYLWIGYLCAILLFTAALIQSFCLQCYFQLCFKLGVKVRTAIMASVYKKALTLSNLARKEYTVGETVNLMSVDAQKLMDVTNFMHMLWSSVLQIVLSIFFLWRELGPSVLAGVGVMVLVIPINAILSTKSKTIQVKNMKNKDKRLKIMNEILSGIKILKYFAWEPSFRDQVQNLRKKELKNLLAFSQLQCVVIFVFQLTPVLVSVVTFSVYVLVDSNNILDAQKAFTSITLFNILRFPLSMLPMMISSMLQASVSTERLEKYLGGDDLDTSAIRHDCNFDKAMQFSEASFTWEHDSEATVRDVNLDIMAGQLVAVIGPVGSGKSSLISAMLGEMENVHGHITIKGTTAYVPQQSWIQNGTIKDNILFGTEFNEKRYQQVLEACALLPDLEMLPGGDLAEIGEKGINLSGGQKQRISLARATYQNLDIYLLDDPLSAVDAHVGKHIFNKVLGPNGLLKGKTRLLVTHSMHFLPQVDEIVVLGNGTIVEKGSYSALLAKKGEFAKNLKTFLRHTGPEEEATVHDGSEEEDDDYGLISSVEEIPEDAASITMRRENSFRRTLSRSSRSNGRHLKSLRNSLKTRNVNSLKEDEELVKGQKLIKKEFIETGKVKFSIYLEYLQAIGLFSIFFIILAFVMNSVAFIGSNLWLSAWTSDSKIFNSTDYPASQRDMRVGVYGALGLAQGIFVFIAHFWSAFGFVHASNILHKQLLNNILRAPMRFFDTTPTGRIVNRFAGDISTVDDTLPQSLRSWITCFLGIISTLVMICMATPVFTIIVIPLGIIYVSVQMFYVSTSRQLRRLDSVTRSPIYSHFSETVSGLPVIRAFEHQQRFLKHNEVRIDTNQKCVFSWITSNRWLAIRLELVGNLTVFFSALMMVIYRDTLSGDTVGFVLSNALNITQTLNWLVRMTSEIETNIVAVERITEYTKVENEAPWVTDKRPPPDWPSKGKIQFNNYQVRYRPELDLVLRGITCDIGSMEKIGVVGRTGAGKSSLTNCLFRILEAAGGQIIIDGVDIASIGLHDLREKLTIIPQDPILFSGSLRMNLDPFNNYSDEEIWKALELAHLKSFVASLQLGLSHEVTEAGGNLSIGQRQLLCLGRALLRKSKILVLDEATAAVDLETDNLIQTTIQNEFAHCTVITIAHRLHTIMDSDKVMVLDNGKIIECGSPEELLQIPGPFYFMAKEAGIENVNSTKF

| Structure (SMILES) | pIC50 (human MRP2) | tolerance of i.v. doses higher than 3 mg/kg (rats) | outcome of intravenous injection (rats; iv, 40 mg/kg) | effect on initial liver uptake (AUCRliver/blood 0–3 min) of [99mTc]mebrofenin [1] | change in AUCRbile/liver of [99mTc]mebrofenin (biliary excretion) ([2]; mice, higher doses of RIF) [%] | change in AUCRbile/liver of [99mTc]mebrofenin (biliary excretion) [2, 3] [%] | effect on liver uptake of [99mTc]mebrofenin [2, 3] | concentration achieving full MRP2 inhibition (human MRP2; MDCK-II-MRP2 cells, calcein-AM assay) [µM] | fold decrease in AUCRbile/liver with MRP2-deficiency ([2]; MRP2-deficient mice) |
| --- | --- | --- | --- | --- | --- | --- | --- | --- | --- |
| COc1ccc([C@@H]2Sc3ccccc3N(CCN(C)C)C(=O)[C@@H]2OC(C)=O)cc1 [DTZ, Diltiazem] | 5.36 | poor tolerance | lethal | did not affect |  |  |  |  |  |
| CO[C@H]1/C=C/O[C@@]2(C)Oc3c(C)c(O)c4c(O)c(c(/C=N/N5CCN(C)CC5)c(O)c4c3C2=O)NC(=O)/C(C)=C\C=C\[C@H](C)[C@H](O)[C@@H](C)[C@@H](O)[C@@H](C)[C@H](OC(C)=O)[C@@H]1C [RIF, rifampicin] | 3.68 |  |  |  | −94 | −25 | did not impact | > 500 |  |
| Cc1cc(C)c(NC(=O)CN(CC(=O)[O-])CC(=O)[O-])c(C)c1Br.Cc1cc(C)c(NC(=O)CN(CC(=O)[O-])CC(=O)[O-])c(C)c1Br.[99Tc+4] [[^99mTc]mebrofenin] |  |  |  |  |  |  |  |  | ~ 10 fold |
